What is called IC50 is the concentration needed to halve the response being measured. Low readings indicate greater potency in that assay, high ones weaker potency in that assay.

The target of the assay is T1, SUV39H2 (Homo sapiens, UniProt Q9H5I1).
T1 construct: N-terminal GST fused SUV39H2
In words: radiometric SPA methyltransferase assay with biotin-H3 ([…]-21) peptide and [3H]-SAM. In kind it is biochemical.

T1 sequence (Q9H5I1 whole entry, the tested form may be a part): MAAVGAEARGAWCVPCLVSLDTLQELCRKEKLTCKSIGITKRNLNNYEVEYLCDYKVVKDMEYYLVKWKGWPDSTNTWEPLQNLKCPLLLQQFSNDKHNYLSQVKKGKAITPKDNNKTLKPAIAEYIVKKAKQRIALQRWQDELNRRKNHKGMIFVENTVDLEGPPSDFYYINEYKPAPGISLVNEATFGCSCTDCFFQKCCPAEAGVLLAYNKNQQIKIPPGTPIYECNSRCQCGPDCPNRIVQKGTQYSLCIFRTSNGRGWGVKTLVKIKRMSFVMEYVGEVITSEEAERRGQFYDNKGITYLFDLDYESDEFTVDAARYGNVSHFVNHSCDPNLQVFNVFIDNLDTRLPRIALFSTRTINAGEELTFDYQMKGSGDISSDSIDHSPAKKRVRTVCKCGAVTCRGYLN

`COc1cc(OC)c(-c2cn3ccc(N[C@H]4CC[C@@H](NCc5ccc([N+](=O)[O-])cc5)CC4)cc3n2)cc1Cl` [OTS193320, (1s,4s)-N^1-(2-(5-chloro-2,4-dimethoxyphenyl)imidazo[1,2-a]pyridin-7-yl)-N^4-(4-nitrobenzyl)cyclohexane-1,4-diamine] registered an IC50 of 22.2 nM.

The record behind these values is article PMC6112750 (Oncotarget, 2018).
